Laboratory results reported in ChEMBL document CHEMBL1158881, “Puupehenone congeners from an indo-pacific hyrtios sponge” (J Nat Prod, 2003).
Active and inactive are the calls of the source.

What was measured:
Assay type in all cases: functional, cell-based
[1] = tested on: L1210; test: Cytotoxicity against mouse L1210 cells by Valeriote soft agar disk diffusion assay
[2] = tested on: MC-38; test: Cytotoxicity against mouse Colon 38 cells by Valeriote soft agar disk diffusion assay
[3] = tested on: H116; test: Cytotoxicity against human H116 cells by Valeriote soft agar disk diffusion assay

Measured: Activity

COc1cc2c(cc1O)O[C@@]1(C)CC[C@H]3C(C)(C)CCC[C@]3(C)C1=C2
inactive: all assays above

COC1=CC2=C[C@@H]3[C@@]4(C)CCCC(C)(C)[C@@H]4CC[C@]3(C)OC2=CC1=O
inactive: all assays above

COc1cc2c(cc1O)O[C@@]1(C)CC[C@H]3C(C)(C)CCC[C@]3(C)[C@H]1[C@@H]2OC
inactive: all assays above
